Source: US12258327B2, “5-membered heteroaryl-containing aminopyridine compounds as EGFR inhibitors” (YUHAN CORPORATION, priority 2021, dated 2025)
Where two headings read alike, the source gives them in different places.

Columns and labels:
EGFR L858R/C797S = EGFR L858R/C797S (Homo sapiens, UniProt P00533, C797S/L858R); assay: Biochemical EGFR kinase assay (Lance Ultra TR-FRET), double mutant L858R/C797S
How it was run: (§1)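 Step 1: compound in kinase buffer, 0.003–10 μM. Step 2: kinase reaction 1 h at room temperature. Step 4: TR-FRET read at 615/665 nm; IC50 calculated.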

EGFR L858R/T790M/C797S = EGFR L858R/T790M/C797S (Homo sapiens, UniProt P00533, C797S/L858R/T790M); assay: Biochemical EGFR kinase assay (Lance Ultra TR-FRET), triple mutant L858R/T790M/C797S
How it was run: as §1

EGFR del19/C797S = EGFR del19/C797S (Homo sapiens, UniProt P00533, C797S/DEL746-750); assay: Biochemical EGFR kinase assay (Lance Ultra TR-FRET), double mutant del19/C797S
How it was run: as §1

EGFR wildtype (WT) = EGFR wildtype (WT) (Homo sapiens, UniProt P00533); assay: Biochemical EGFR kinase assay (Lance Ultra TR-FRET), wildtype
How it was run: as §1

EGFR del19/T790M/C797S = EGFR del19/T790M/C797S (Homo sapiens, UniProt P00533, C797S/DEL746-750/T790M); assay: Biochemical EGFR kinase assay (Lance Ultra TR-FRET), triple mutant del19/T790M/C797S
How it was run: as §1

[1] = IC50 L858R/C797S (nM) 100 μM ATP, 100 μM ATP
[2] = Km ATP, read-out: IC50 L858R/C797S (nM) Km ATP
[3] = IC50 L858R/T790M/C797S (nM) 100 μM ATP, 100 μM ATP
[4] = Km ATP, read-out: IC50 L858R/T790M/C797S (nM) Km ATP
[5] = IC50 del19/C797S (nM) 100 μM ATP, 100 μM ATP
[6] = Km ATP, read-out: IC50 del19/C797S (nM) Km ATP
[7] = IC50 WT (nM) 100 μM ATP, 100 μM ATP
[8] = Km ATP, read-out: IC50 WT (nM) Km ATP
[9] = IC50 del19/T790M/C797S (nM) 100 μM ATP, 100 μM ATP
[10] = Km ATP, read-out: IC50 del19/T790M/C797S (nM) Km ATP

Sequence of EGFR L858R/C797S (P00533 25-1210 C797S/L858R): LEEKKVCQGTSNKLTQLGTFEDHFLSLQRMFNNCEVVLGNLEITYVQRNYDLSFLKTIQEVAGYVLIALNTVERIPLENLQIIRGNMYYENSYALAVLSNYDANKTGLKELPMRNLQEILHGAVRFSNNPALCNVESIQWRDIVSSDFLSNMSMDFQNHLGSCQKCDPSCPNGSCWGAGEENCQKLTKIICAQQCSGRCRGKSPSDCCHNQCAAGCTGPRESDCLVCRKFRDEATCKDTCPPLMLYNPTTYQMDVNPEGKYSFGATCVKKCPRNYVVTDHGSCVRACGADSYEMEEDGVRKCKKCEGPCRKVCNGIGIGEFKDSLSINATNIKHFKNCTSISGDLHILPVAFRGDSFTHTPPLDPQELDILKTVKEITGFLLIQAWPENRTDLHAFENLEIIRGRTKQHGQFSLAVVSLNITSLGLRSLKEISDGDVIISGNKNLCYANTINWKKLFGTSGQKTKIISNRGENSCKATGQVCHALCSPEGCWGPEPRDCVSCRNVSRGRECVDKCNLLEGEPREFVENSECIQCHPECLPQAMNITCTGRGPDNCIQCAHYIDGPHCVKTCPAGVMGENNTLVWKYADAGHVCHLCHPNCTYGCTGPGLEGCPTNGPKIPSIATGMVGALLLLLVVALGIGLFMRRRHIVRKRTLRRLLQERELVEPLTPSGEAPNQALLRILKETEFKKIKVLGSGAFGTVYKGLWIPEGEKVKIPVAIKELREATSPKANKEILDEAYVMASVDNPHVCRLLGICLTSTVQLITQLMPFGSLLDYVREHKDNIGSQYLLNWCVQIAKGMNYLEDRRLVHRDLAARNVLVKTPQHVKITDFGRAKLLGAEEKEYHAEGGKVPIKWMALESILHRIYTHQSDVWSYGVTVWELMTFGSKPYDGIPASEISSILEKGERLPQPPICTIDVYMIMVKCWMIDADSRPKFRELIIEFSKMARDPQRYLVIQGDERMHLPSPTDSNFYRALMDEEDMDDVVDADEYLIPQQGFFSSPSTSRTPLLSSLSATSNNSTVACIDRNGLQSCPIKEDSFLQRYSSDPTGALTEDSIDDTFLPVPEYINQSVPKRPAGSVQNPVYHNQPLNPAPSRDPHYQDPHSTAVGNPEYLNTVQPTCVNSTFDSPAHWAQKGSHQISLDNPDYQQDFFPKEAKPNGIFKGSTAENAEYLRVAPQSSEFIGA
Sequence of EGFR del19/C797S (P00533 with tags, fused parts or gaps DEL746-750/C797S): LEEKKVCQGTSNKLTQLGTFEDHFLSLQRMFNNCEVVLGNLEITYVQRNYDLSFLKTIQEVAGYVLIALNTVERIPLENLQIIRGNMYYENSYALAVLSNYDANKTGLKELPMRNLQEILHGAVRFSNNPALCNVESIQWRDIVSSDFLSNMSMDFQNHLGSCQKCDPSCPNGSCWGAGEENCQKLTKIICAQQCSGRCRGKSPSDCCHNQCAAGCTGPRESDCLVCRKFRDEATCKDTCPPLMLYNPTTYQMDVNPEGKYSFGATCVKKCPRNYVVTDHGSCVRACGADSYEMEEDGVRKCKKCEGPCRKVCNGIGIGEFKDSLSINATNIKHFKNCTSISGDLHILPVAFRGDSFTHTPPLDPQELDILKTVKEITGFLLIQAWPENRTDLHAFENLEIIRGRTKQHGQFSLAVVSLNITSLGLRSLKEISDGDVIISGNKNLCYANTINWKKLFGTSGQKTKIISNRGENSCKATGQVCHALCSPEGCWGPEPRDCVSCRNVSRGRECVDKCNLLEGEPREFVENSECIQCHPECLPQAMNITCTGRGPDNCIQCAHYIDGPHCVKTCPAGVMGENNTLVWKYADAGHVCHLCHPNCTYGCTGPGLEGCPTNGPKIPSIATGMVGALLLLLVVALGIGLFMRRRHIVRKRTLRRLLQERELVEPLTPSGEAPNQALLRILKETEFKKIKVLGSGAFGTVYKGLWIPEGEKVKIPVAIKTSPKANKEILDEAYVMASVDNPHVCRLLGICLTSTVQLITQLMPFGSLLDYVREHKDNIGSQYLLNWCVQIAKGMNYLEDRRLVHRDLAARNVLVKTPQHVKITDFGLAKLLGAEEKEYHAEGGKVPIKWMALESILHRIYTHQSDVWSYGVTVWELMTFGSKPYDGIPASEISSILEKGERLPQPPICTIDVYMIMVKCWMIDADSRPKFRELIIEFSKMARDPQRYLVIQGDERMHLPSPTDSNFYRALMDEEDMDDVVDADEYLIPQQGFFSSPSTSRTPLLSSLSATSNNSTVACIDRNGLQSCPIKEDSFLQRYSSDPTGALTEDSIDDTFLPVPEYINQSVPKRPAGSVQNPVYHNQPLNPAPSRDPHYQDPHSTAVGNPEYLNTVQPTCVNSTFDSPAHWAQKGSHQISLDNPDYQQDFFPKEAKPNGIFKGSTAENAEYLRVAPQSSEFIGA
Sequence of EGFR wildtype (WT) (P00533 25-1210): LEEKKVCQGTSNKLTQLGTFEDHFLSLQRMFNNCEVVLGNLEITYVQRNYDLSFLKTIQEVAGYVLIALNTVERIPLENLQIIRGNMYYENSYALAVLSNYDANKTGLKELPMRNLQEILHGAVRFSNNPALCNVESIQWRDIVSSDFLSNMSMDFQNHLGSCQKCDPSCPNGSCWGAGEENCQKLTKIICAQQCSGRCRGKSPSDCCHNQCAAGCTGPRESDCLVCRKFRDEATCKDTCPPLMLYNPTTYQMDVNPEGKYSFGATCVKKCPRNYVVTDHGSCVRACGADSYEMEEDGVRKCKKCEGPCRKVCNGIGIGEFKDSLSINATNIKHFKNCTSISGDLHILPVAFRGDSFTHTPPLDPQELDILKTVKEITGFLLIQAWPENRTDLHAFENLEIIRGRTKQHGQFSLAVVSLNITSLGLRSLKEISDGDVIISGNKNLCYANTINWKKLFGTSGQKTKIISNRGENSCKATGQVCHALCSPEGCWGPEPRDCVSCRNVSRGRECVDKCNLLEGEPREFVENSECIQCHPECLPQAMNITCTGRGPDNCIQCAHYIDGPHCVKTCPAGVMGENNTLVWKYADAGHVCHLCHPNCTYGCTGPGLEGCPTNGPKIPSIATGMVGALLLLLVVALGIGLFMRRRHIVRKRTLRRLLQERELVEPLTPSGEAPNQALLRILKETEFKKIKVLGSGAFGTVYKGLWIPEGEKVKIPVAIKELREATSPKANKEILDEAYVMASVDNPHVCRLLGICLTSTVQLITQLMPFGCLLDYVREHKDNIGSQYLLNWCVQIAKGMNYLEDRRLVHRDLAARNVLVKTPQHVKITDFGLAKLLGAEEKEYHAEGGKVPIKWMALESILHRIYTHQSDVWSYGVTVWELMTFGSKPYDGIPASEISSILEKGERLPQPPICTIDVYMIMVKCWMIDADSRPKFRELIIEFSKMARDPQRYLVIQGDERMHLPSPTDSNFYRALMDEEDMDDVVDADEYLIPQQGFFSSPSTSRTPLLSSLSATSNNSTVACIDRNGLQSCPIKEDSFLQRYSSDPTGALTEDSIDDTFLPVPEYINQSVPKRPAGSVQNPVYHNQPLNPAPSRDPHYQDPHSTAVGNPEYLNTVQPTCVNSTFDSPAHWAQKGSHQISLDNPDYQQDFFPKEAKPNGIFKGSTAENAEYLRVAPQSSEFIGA
Sequence of EGFR L858R/T790M/C797S (P00533 25-1210 T790M/C797S/L858R): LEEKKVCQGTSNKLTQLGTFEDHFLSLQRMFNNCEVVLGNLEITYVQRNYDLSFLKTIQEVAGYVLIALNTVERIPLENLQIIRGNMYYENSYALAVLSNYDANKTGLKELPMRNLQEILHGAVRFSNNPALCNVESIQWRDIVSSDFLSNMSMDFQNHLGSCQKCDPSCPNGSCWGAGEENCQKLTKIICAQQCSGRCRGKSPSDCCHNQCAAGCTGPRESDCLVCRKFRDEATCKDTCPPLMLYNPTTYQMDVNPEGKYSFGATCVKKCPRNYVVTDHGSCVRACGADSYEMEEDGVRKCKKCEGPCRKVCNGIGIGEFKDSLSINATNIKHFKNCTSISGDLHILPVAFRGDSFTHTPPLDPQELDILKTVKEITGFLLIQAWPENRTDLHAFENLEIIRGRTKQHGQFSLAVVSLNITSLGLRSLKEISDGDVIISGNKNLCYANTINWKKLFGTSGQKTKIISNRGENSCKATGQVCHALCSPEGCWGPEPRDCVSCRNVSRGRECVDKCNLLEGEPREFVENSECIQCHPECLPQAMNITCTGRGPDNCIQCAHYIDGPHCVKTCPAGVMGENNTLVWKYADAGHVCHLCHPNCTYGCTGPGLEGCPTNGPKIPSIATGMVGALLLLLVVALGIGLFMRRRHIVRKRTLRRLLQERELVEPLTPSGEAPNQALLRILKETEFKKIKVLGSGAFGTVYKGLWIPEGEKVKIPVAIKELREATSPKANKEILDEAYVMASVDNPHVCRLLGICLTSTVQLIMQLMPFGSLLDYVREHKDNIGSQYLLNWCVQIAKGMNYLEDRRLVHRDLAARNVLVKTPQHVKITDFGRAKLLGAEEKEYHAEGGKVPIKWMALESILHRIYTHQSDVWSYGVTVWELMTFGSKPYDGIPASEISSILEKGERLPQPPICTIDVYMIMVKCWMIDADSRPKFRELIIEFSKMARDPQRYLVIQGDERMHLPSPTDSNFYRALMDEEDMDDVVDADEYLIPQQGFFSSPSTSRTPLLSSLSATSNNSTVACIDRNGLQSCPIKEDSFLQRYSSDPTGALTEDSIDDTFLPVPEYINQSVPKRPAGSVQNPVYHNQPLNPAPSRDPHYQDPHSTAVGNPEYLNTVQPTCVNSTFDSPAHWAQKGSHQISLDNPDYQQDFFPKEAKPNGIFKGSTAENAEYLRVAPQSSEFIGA

Row | IC50 (EGFR L858R/C797S; [1]) | IC50 (EGFR L858R/C797S; [2]) | IC50 (EGFR L858R/T790M/C797S; [3]) | IC50 (EGFR L858R/T790M/C797S; [4]) | IC50 (EGFR del19/C797S; [5]) | IC50 (EGFR del19/C797S; [6]) | IC50 (EGFR wildtype (WT); [7]) | IC50 (EGFR wildtype (WT); [8]) | IC50 (EGFR del19/T790M/C797S; [9]) | IC50 (EGFR del19/T790M/C797S; [10]) | SMILES
1 | 35.4 nM | 11.2 nM | 1.2 nM | 0.7 nM | 2700 nM | 23.6 nM | > 10000 nM | 620 nM | 2.1 nM | 7.2 nM | O=S(=O)(C1CC1)n1cc(-c2nccc(Nc3cc(N[C@H]4CC[C@H](CCO)CC4)c(-c4ccn(CC(F)(F)F)n4)cn3)n2)cn1 [Example 270, 2-((1r,4r)-4-((2-((2-(1-(Cyclopropylsulfonyl)-1H-pyrazol-4-yl)pyrimidin-4-yl)amino)-5-(1-(2,2,2-trifluoroethyl)-1H-pyrazol-3-yl)pyridin-4-yl)amino)cyclohexyl)ethan-1-ol]
2 | 8.7 nM | 4.6 nM | 1.4 nM | 0.5 nM | 122 nM | 10.3 nM | > 10000 nM | 50.1 nM | 1.4 nM | 0.6 nM | O=S(=O)(C1CC1)n1cc(-c2nccc(Nc3cc(N[C@H]4CCC[C@H](CO)C4)c(-c4ccn(CC(F)(F)F)n4)cn3)n2)cn1 [Example 271, ((1S,3S)-3-((2-((2-(1-(Cyclopropylsulfonyl)-1H-pyrazol-4-yl)pyrimidin-4-yl)amino)-5-(1-(2,2,2-trifluoroethyl)-1H-pyrazol-3-yl)pyridin-4-yl)amino)cyclohexyl)methanol]
3 | 1.1 nM | 0.4 nM | 0.2 nM | 0.1 nM | 0.5 nM | 23.9 nM | 325 nM | 1.4 nM | 0.5 nM | 0.3 nM | O=S(=O)(C1CC1)n1cc(-c2nccc(Nc3cc(N[C@H]4CC[C@@H](CN5CCC5)CC4)c(-c4ccn(CC(F)(F)F)n4)cn3)n2)cn1 [Example 272, N^4-((1s,4s)-4-(Azetidin-1-ylmethyl)cyclohexyl)-N^2-(2-(1-(cyclopropylsulfonyl)-1H-pyrazol-4-yl)pyrimidin-4-yl)-5-(1-(2,2,2-trifluoroethyl)-1H-pyrazol-3-yl)pyridine-2,4-diamine]
4 | 3.8 nM | 0.3 nM | 0.3 nM | 0.2 nM | 0.5 nM | 0.6 nM | 4880 nM | 3.4 nM | 0.5 nM | 0.3 nM | C[C@]1(O)CC[C@@H](Nc2cc(Nc3ccnc(-c4cnn(S(=O)(=O)C5CC5)c4)n3)ncc2-c2cn3c(n2)CCC3)CC1 [Example 274, (1s,4s)-4-((2-((2-(1-(Cyclopropylsulfonyl)-1H-pyrazol-4-yl)pyrimidin-4-yl)amino)-5-(6,7-dihydro-5H-pyrrolo[1,2-a]imidazol-2-yl)pyridin-4-yl)amino)-1-methylcyclohexan-1-ol]
5 | 4.7 nM | 0.4 nM | 0.5 nM | 0.2 nM | 0.6 nM | 0.4 nM | 2940 nM | 1.8 nM | 0.6 nM | 0.4 nM | O=S(=O)(C1CC1)n1cc(-c2nccc(Nc3cc(N[C@H]4CC[C@](O)(CO)CC4)c(-c4cc5n(n4)CCCC5)cn3)n2)cn1 [Example 275, (1s,4s)-4-((2-((2-(1-(Cyclopropylsulfonyl)-1H-pyrazol-4-yl)pyrimidin-4-yl)amino)-5-(4,5,6,7-tetrahydropyrazolo[1,5-a]pyridin-2-yl)pyridin-4-yl)amino)-1-(hydroxymethyl)cyclohexan-1-ol]
6 | 121 nM | 1.9 nM | 0.9 nM | 0.4 nM | 1.4 nM | 1.2 nM | > 10000 nM | 14.9 nM | 1.1 nM | 0.8 nM | O=S(=O)(C1CC1)n1cc(-c2nccc(Nc3cc(NC4CCC(F)(CO)CC4)c(-c4cc5n(n4)CCCC5)cn3)n2)cn1 (stereo not drawn) [Example 276, (4-((2-((2-(1-(Cyclopropylsulfonyl)-1H-pyrazol-4-yl)pyrimidin-4-yl)amino)-5-(4,5,6,7-tetrahydropyrazolo[1,5-a]pyridin-2-yl)pyridin-4-yl)amino)-1-fluorocyclohexyl)methanol]
7 | 1.6 nM | 0.2 nM | 0.3 nM | 0.1 nM | 0.5 nM | 0.2 nM | 47.5 nM | 0.4 nM | 0.3 nM | 0.2 nM | CN(C)C[C@H]1CC[C@@H](Nc2cc(Nc3ccnc(-c4cnn(S(=O)(=O)C5CC5)c4)n3)ncc2-c2cc3n(n2)CCCC3)CC1 [Example 277, N^2-(2-(1-(Cyclopropylsulfonyl)-1H-pyrazol-4-yl)pyrimidin-4-yl)-N^4-((1s,4s)-4-((dimethylamino)methyl)cyclohexyl)-5-(4,5,6,7-tetrahydropyrazolo[1,5-a]pyridin-2-yl)pyridine-2,4-diamine]
8 | 3.4 nM | 0.3 nM | 0.3 nM | 0.1 nM | 1 nM | 0.6 nM | 669 nM | 1.2 nM | 0.4 nM | 0.6 nM | CN(C)CCCn1ccc(-c2cnc(Nc3ccnc(-c4cnn(S(=O)(=O)C5CC5)c4)n3)cc2N[C@H]2CC[C@@H](C(C)(C)O)CC2)n1 [Example 278, 2-((1s,4s)-4-((2-((2-(1-(Cyclopropylsulfonyl)-1H-pyrazol-4-yl)pyrimidin-4-yl)amino)-5-(1-(3-(dimethylamino)propyl)-1H-pyrazol-3-yl)pyridin-4-yl)amino)cyclohexyl)propan-2-ol]
9 | 14.2 nM | 0.6 nM | 0.4 nM | 0.3 nM | 1 nM | 0.6 nM | 4690 nM | 4.9 nM | 0.3 nM | 0.5 nM | CN(C)CCCn1ccc(-c2cnc(Nc3ccnc(-c4cnn(S(=O)(=O)C5CC5)c4)n3)cc2NCC2(CO)COC2)n1 [Example 279, (3-(((2-((2-(1-(Cyclopropylsulfonyl)-1H-pyrazol-4-yl)pyrimidin-4-yl)amino)-5-(1-(3-(dimethylamino)propyl)-1H-pyrazol-3-yl)pyridin-4-yl)amino)methyl)oxetan-3-yl)methanol]
10 | 3.8 nM | 0.3 nM | 0.7 nM | 1 nM | 0.7 nM | 0.2 nM | 51.9 nM | 0.4 nM | 1 nM | 0.8 nM | Cc1cc(-c2cnc(Nc3ccnc(-c4cnn(S(=O)(=O)C5CC5)c4)n3)cc2N[C@H]2CC[C@@H](CO)CC2)nn1C [Example 280, ((1s,4s)-4-((2-((2-(1-(Cyclopropylsulfonyl)-1H-pyrazol-4-yl)pyrimidin-4-yl)amino)-5-(1,5-dimethyl-1H-pyrazol-3-yl)pyridin-4-yl)amino)cyclohexyl)methanol]
11 | 40.4 nM | 2.8 nM | 2.3 nM | 0.6 nM | 1.1 nM | 0.9 nM | 806 nM | 2.9 nM | 2.8 nM | 1.8 nM | Cc1cc(-c2cnc(Nc3ccnc(-c4cnn(S(=O)(=O)C5CC5)c4)n3)cc2N[C@H]2CC[C@@H](C(C)(C)O)CC2)nn1C [Example 281, 2-((1s,4s)-4-((2-((2-(1-(Cyclopropylsulfonyl)-1H-pyrazol-4-yl)pyrimidin-4-yl)amino)-5-(1,5-dimethyl-1H-pyrazol-3-yl)pyridin-4-yl)amino)cyclohexyl)propan-2-ol]
12 | 0.7 nM | 0.1 nM | 0.3 nM | 0.1 nM | 0.5 nM | 0.1 nM | 370 nM | 0.6 nM | 0.3 nM | 0.3 nM | O=S(=O)(C1CC1)n1cc(-c2nccc(Nc3cc(N[C@H]4CC[C@@H](CO)CC4)c(-c4ccn(C5COC5)n4)cn3)n2)cn1 [Example 282, ((1s,4s)-4-((2-((2-(1-(Cyclopropylsulfonyl)-1H-pyrazol-4-yl)pyrimidin-4-yl)amino)-5-(1-(oxetan-3-yl)-1H-pyrazol-3-yl)pyridin-4-yl)amino)cyclohexyl)methanol]
13 | 0.9 nM | 0.1 nM | 0.1 nM | 0.1 nM | 0.4 nM | 0.1 nM | 387 nM | 0.8 nM | 0.1 nM | 0.1 nM | CN(C)CC1CCC(Nc2cc(Nc3ccnc(-c4cnn(S(=O)(=O)C5CC5)c4)n3)ncc2-c2ccn(C3COC3)n2)CC1 (stereo not drawn) [Example 284, N^2-(2-(1-(Cyclopropylsulfonyl)-1H-pyrazol-4-yl)pyrimidin-4-yl)-N^4-((1s,4s)-4-((dimethylamino)methyl)cyclohexyl)-5-(1-(oxetan-3-yl)-1H-pyrazol-3-yl)pyridine-2,4-diamine]
14 | – | 188 nM | – | 4.8 nM | – | 90.9 nM | – | 1010 nM | – | 20.2 nM | O=S(=O)(C1CC1)n1cc(-c2nccc(Nc3cc(N[C@H]4CC[C@@H](F)CC4)c(-c4ccn(C(F)(F)F)n4)cn3)n2)cn1 [Example 286, N^2-(2-(1-(Cyclopropylsulfonyl)-1H-pyrazol-4-yl)pyrimidin-4-yl)-N^4-((1s,4s)-4-fluorocyclohexyl)-5-(1-(trifluoromethyl)-1H-pyrazol-3-yl)pyridine-2,4-diamine]
